Data reported in US20220151890A1, “EFFICIENT SUNSCREEN COMPOSITIONS WITH DIETHYLAMINO HYDROXYBENZOYL HEXYL BENZOATE AND BUTYL METHOXYDIBENZOYLMETHANE” (BASF SE, priority 2019, published 2022).
Counter-ions that a name gives are not always drawn.

How the values were obtained:
[1] = UV filter performance: wavelength of maximum absorbance of BMDBM in emollient; format: physicochemical; conditions: BMDBM dissolved in the listed emollient; UV/Vis 290 to 400nm, 1 cm cuvette
Experimental: (§1) The wavelength of maximum absorbance (,max) is an indicator to describe the performance of a UV filter molecule. It gives the wavelength at which the absorbance is at maximum. […] The UV transmission spectrum of each UV filter - emollient mixture was measured from 290 to 400nm using a UV/Vis spectrophotometer Perkin Elmer Lambda 25. Three stock solutions with a concentration of 1mM of UV filter were prepared for each mixture. Further, three dilutions of each stock solution were prepared resulting in nine measurements in total per UV filter-emollient solution. Then, all solutions were filled in UV transparent quartz cuvette of 1 cm optical path-length for UV Transmission measurements.

[2] = UV filter performance: wavelength of maximum absorbance of DHHB in emollient; format: physicochemical; conditions: DHHB dissolved in the listed emollient; UV/Vis 290 to 400nm, 1 cm cuvette
Experimental: as §1

[3] = Measurement of interfacial tension (polarity index) of emollients; format: physicochemical; conditions: interfacial tension between emollient and water, Tensimat Densimat TD2000
Description: The term “polarity index” refers to non-polar or polar oils. Non-polar oils are mainly based on hydrocarbons and lack an electronegative element, such as oxygen. In contrast, polar oils contain heteroatoms that differ in electronegativity, which results in a dipole moment. However, such oils are still insoluble in water, i.e. hydrophob. The polarity index can be determined by measuring the interfacial tension between the respective oil and water.
Measurement of interfacial tension (polarity index)
Interfacial tension of the respective emollients as listed below was measured using a Tensimat Densimat TD2000.

[4] = Recovery measurements on photo stability of BEMT (irradiated film on quartz plates, HPLC); format: physicochemical; conditions: presence of BMDBM in the composition
Experimental: Recovery measurements on photo stability of BEMT
The sunscreen and UV filter compositions as defined above are applied on roughened quartz plates (2 μl/cm^2). Plates are irradiated using Atlas CPS device at different duration times:
(§2) 0h (0 MED, no irradiation)
4h (20 MED). In total, four plates are prepared for each irradiation condition. After irradiation, each plate is rinsed off with tetrahydrofuran. The rinsing solution is further analyzed via HPLC to determine the recovery of BEMT.

[5] = description of the commercial UV filter; cited from earlier work
[6] = Recovery measurements on photo stability of BMDBM (irradiated film on quartz plates, HPLC); format: physicochemical; conditions: octocrylene free sunscreen composition
Experimental: Recovery measurements on photo stability of BMDBM
The sunscreen and UV filter compositions as defined above are applied on roughened quartz plates (2 μl/cm^2). Plates are irradiated using Atlas CPS device at different duration times (MED=Minimal Erythema Dose):
as §2
4h (20 MED). In total, four plates are prepared for each irradiation condition. After irradiation, each plate is rinsed off with tetrahydrofuran. The rinsing solution is further analyzed via HPLC to determine the recovery of BMDBM.

| Compound | λmax values (BMDBM) [1] [nm] | λmax values (DHHB) [2] [nm] | polarity index [3] [mN/m] | absorption maximum [5] [nm] | further results |
| --- | --- | --- | --- | --- | --- |
| COc1ccc(C(=O)CC(=O)c2ccc(C(C)(C)C)cc2)cc1 [BMDBM, 1-(4-(1,1-dimethylethyl)phenyl)-3-(4-methoxyphenyl)propane-1,3-dione] |  |  |  | 357 | effect on stability of BEMT, in words [4]: destabilizes the UV filter BEMT |
| CCCCCCCCCCC(CO)CCCCCCCC (stereo not drawn) [octyldodecanol] | 357 | 349 | 25 |  |  |
| CCCCCCOC(=O)c1ccccc1C(=O)c1ccc(N(CC)CC)cc1O [DHHB, hexyl 2-[4-(diethylamino)-2-hydroxybenzoyl]benzoate] |  |  |  | 354 | effect on photo stability of BMDBM and BEMT, in words [6]: stabilizes the UV filter BMDBM and BEMT |
| c1ccc(-c2ccc(-c3nc(-c4ccc(-c5ccccc5)cc4)nc(-c4ccc(-c5ccccc5)cc4)n3)cc2)cc1 [tris-biphenyl triazine, 2,4,6-Tris(biphenyl-4-yl)-1,3,5-triazine] |  |  |  | 310 |  |
| CCCCCCCCCCCCCC(=O)OC(C)C [isopropyl myristate] | 357 |  |  |  |  |
| CCCCC(CC)COC(=O)c1ccc(Nc2nc(Nc3ccc(C(=O)NC(C)(C)C)cc3)nc(Nc3ccc(C(=O)OCC(CC)CCCC)cc3)n2)cc1 (stereo not drawn) [diethylhexyl-butamidotriazone, 4,4′-[[6-[[4-[[(1,1-dimethylethyl)amino]carbonyl]phenyl]amino]-1,3,5-triazin-2,4-diyl]diimino]bis-benzoic acid-bis(2-ethylhexyl)ester] |  |  |  | 310 |  |

Further lines, with some results ahead:

| λmax values (BMDBM) [1] [nm] | λmax values (DHHB) [2] [nm] | polarity index [3] [mN/m] | Compound | absorption maximum [5] [nm] | further results |
| --- | --- | --- | --- | --- | --- |
| 357 | 351 | 12 | CC(C)OC(=O)CCCCC(=O)OC(C)C [diisopropyl adipate] |  |  |
| 357 | 350 |  | CC(C)OC(=O)CCCCCCCCC(=O)OC(C)C [diisopropyl sebacate] |  |  |
| 362 | 355 | 19 | O=C(OCCc1ccccc1)c1ccccc1 [phenethyl benzoate] |  |  |
| 359 | 353 |  | CCOC(=O)CC(O)(CC(=O)OCC)C(=O)OCC [triethyl citrate] |  |  |
|  | 351 |  | CCCCOC(=O)CCCCC(=O)OCCCC [dibutyl adipate] |  |  |
| 359 | 352 | 10 | CCCCOC(=O)CC(O)(CC(=O)OCCCC)C(=O)OCCCC [tributyl citrate] |  |  |
